Entries after “also recorded” stand apart in the source; their conditions may differ.
Key:
hERG potassium channel = target: T1, hERG potassium channel (Homo sapiens, UniProt Q12809); assay: hERG ion channel inhibition (Fluxor potassium assay, CHO cells); assay type: cell-based; conditions: blockade of the K+ channel current at 10 μM
T1 construct: expressed in transfected cells; host or cells: CHO cell line
Description: CYP1A2 and CYP2C19, 7- methoxy- 4(trifluoromethyl)coumarin for CYP2C9, 3-[2-(N,N- diethyl -N-methylammonium)ethyl]-7- methoxy- 4- methylcoumarin for CYP2D6, and 7- benzyloxytrifluoromethylcoumarin for CYP3A4), to give the final assay concentrations in a reaction volume of 200 µL. Reactions were terminated after specific time for each cytochrome by addition of STOP solution (0.5 M 80:20 ACN/TrisHCl). […]
hERG ion channel inhibition. The assay was carried out using a CHO cell line transfected with the hERG potassium channel. C ells were seeded (2500 cells/well) 72 h before the assay on a 384-well black plate (Greiner 781091). Cell s were maintained at 37 °C in a 5% CO2 atmosphere for 24 h and at 30 °C in a 5% CO 2 atmosphere for 48 h. hERG activity was measured by using the FluxorTM Potassium Ion Chanel Assay Kit (Thermo Fisher F10016). Medium was replaced for 20 µL of loading buffer and cells were incubated for 60 min at 25 °C, protected from direct light. After incubation, l oading buffer was replaced for a ssay buffer and compounds were incubated for 30 min at 25 °C. After this time, 5 µL of stimulus buffer was added to each well and fluorescence was read (λ ex = 490 nm, λem = 525 nm) every second after the establishment of a baseline line using an imaging plate reader system (FDSS7000EX, Hamamatsu®). The fluorescent signal was […]

CYP2C19 = target: T2, CYP2C19 (Homo sapiens, UniProt P33261); assay: cytochrome inhibition, fluorescence assay, CYP2C19; assay type: in vitro ADME
T2 construct: host or cells: insect cell microsomes
T2 sequence (P33261 whole entry): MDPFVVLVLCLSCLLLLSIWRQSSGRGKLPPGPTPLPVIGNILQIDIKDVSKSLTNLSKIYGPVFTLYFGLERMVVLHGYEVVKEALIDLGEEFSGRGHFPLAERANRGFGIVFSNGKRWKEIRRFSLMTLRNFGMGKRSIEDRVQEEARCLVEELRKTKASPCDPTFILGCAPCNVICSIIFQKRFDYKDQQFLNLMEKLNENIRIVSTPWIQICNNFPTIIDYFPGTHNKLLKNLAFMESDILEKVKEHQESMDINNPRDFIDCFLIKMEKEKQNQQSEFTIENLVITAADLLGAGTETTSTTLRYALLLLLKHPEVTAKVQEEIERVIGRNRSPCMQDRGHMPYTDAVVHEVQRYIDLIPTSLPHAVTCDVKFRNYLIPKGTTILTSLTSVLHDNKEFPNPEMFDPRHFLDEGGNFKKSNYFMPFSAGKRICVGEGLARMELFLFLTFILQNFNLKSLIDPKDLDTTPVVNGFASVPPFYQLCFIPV
Description: (§1) Cytochrome inhibition. The objective of this study was to screen the potential of test […]
(§2) performed using recombinant isoforms CYP1A2, CYP2C9, CYP2C19, CYP2D6, and CYP3A4, and probe substrates with fluorescent detection.
(§3) Assays were conducted in a 200 µL volume in 96-well microtiter plates (COSTAR 3915).
(§4) Addition of cofactor-buffer mixture (KH2PO4 buffer, 1.3 mM NADP, 3.3 mM MgCl2, 3.3 mM glucose -6- phosphate, and 0.4 U/mL glucose -6- phosphate dehydrogenase), supersomes control, standard inhibitors (furafyline, tranylzypromine, ketoconazole, sulfaphenazole, and quinidine from Sigma Aldrich) and test compound to the plate was carried out by a liquid handling station (Zephyr Caliper). The plate was then pre-incubated at 37 °C for 5 min, and the reaction was initiated by the addition of the pr e - warmed enzyme/substrate (E/S) mix. […]
(§5) Fluorescence per well was measured using a fluorescence plate reader (Tecan Infinite M1000 pro) and percentage of inhibition was calculated. hERG ion channel inhibition. […]

CYP2C9 = target: T3, CYP2C9 (Homo sapiens, UniProt P11712); assay: cytochrome inhibition, fluorescence assay, CYP2C9; assay type: in vitro ADME
T3 construct: host or cells: insect cell microsomes
T3 sequence (P11712 whole entry): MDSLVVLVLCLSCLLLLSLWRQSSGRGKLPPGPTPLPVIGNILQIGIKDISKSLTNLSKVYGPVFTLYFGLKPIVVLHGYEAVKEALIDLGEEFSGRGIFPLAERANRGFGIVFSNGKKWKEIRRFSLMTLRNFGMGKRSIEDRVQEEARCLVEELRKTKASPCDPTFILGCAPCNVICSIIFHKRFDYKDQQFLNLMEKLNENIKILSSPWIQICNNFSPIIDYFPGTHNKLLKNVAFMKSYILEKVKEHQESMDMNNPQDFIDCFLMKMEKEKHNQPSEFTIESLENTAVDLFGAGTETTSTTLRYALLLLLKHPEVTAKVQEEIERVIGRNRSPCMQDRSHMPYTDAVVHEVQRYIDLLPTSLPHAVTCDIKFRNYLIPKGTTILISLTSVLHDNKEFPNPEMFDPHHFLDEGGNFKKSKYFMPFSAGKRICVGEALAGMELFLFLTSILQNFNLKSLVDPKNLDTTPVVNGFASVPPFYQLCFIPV
Description: as §1, §2, §3, §4, §5

[1] = tested on: reserpinized C57BL/6 mice; assay: locomotor activity in reserpinized mice; assay type: in vivo, mouse
Description: The study was carried out in male C57BL/6 wild-type (22–25 g) mice that were acclimatized for 5 days. Animals were randomized based on body weight into six groups (G1 to G6), ten animals per group (n = 10), being group G1 the naïve control group. Animals were fed with standard diet ad libitum. Animals were dosed with subcutaneous administration of reserpine (2.5 mg/kg in DMSO/saline) and after 20 h they were treated with a vehicle (10 mL/kg, po), compound 26 (30 mg/kg, po), L-DOPA (100 or 400 mg/kg, ip) + carbidopa (100 mg/kg, ip) and/or their combination, as indicated in Figure 7. The vehicle employed for compound 26 administration was 5% NMP + 5% solutol HS-15 + 90% normal saline. L-DOPA and carbidopa were administered 30 min prior to start of locomotor activity recording. Compound 26 was administered and 15 min later, mice were placed in the locomotor activity cage to measure the locomotor activity for 60 min (total distance travelled) using ALL Maze version 0.5 automated software enabled with video tracking system. After the activity sessions, raw data were reduced using ALL Maze 5.0 software and Microsoft Excel. Statistical analysis was done with GraphPad Prism-5 using one way ANOVA followed by Dunnett’s test/Tukey’s post hoc test and/or two-way ANOVA followed by Bonferroni post hoc test. Data were considered statistically significant, if P value was less than 0.05.

C57BL/6J mice = assay: cocaine-induced hyperlocomotion assay; assay type: in vivo, mouse; conditions: 1 mg/kg ip
Description: The experiment was conducted in adherence to the European Communities Council Directive (86/609/ECC) and Spanish regulations (BOE 252/34367-91, 2005) for the use of laboratory animals. The assay was performed according to a previously reported method[57] using 3 month old male mice with C57BL/6J background, and 8 mice were used for each experimental condition. All mice were handled and habituated to the injection procedures once per day for 5 days prior to behavioral testing. Experiments were carried out between 8:00 and 20:00, and the animals were acclimated to the experimental room for 30 min each day. Performance in the open field was recorded by a computer-based video tracking system (Smart v2.5, Panlab, Barcelona, Spain). Four open fields (50 × 50 × 50 cm, Panlab) with gray backgrounds were used, and the maximum light intensity in the center of the open field was 100 lux. Animals received a dose of 26 (1 mg/kg, ip) in a volume of 20 mL/kg of sterile saline as the vehicle, 15 min prior to a dose of cocaine (20 mg/kg, sc). Five min after cocaine injection, animals were placed in the open field and locomotion was measured at […] along a 30-min period of analysis. Horizontal locomotion was measured as total distance traveled (cm).

[2] = percentage of inhibition at 10 μM

T1 sequence (Q12809 whole entry): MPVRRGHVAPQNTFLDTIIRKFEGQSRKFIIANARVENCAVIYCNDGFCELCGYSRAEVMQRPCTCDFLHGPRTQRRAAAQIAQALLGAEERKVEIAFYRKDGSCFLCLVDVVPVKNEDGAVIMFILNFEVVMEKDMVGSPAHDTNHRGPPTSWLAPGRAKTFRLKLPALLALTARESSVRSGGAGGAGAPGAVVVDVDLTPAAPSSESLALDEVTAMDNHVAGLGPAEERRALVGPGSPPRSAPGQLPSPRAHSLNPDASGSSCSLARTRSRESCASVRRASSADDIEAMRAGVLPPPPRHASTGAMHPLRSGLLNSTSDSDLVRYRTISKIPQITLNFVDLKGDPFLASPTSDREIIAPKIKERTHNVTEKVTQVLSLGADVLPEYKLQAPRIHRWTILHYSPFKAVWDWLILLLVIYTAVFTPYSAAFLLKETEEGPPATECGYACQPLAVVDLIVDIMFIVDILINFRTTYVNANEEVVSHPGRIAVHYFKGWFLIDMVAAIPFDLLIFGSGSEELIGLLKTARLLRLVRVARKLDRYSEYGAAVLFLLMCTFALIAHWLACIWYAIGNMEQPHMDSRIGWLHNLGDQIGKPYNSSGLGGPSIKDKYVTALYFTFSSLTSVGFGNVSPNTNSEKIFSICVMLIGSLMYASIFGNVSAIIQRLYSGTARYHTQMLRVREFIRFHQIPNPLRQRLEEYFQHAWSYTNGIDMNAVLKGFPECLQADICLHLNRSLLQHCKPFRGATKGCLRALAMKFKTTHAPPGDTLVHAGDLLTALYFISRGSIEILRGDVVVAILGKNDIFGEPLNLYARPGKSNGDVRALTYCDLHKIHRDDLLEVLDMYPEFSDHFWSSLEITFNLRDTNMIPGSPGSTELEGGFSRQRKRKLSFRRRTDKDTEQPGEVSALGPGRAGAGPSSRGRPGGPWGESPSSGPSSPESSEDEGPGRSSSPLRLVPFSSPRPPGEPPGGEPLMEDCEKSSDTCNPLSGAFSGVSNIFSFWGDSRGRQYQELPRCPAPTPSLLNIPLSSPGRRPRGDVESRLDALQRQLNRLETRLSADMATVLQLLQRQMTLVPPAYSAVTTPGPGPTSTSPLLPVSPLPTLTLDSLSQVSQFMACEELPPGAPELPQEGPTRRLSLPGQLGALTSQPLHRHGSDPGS

SMILES | hERG inhibition (%) (hERG potassium channel) | IC50 (CYP2C19) | CYP2C9 (%) (CYP2C9; Table S1, concentration not given) | adverse effects observed in the animals ([1]; after oral dose administration, 30 mg/kg) | effect on locomotor activity in combination with L-DOPA ([1]; reserpine 2.5 mg/kg sc, 26 30 mg/kg po plus L-DOPA 100 or 400 mg/kg ip) | recovery of decreased locomotor activity, substance alone ([1]; reserpine 2.5 mg/kg sc, 26 30 mg/kg po, L-DOPA 100 or 400 mg/kg ip) | CYP2C19 (%) (CYP2C19; [2]) | melting point | CYP2C9 (%) (CYP2C9; [2]) | effect on cocaine-induced hyperlocomotion (C57BL/6J mice; 15 min before cocaine 20 mg/kg sc) | intrinsic locomotor activity, compound alone (C57BL/6J mice; no cocaine)
O=Cc1ccc(-c2ccccc2OCF)cc1 [Compound 3, 2′-(Fluoromethoxy)[1,1′-biphenyl]-4-carbaldehyde] | 11 ± 2% | 6.53 ± 1.12 µM | inactive | – | – | – | – | – | – | – | –
CS(=N)(=O)c1ccc(-c2ccccc2OCF)cc1 (stereo not drawn) [Compound 26, 2-(Fluoromethoxy)-4′-(S-methanesulfonimidoyl)-1,1′-biphenyl] | 21% | – | – | no sign of adverse effects | moderate synergistic effect | small recovery of decreased locomotor activity | 37 ± 2% | 144 to 145 °C | 38 ± 3% | potentiated the hyperlocomotion induced by cocaine; also recorded: enhanced cocaine (20 mg/kg, sc)-induced hyperlocomotion | no intrinsic locomotor activity

Reference: PMC9511493, “2-(Fluoromethoxy)-4′-(S-methanesulfonimidoyl)-1,1′-biphenyl (UCM-1306), an Orally Bioavailable Positive Allosteric Modulator of the Human Dopamine D1 Receptor for Parkinson’s Disease” (Journal of Medicinal Chemistry, 2022)
